The structures appear in SMILES notation.

This experiment can be described thus: Microindentation as a measure of enamel hardness: softening by 1.0% w/w citric acid pH 3.8 after 120 s treatment. Also on record: species or system human. The following applies: FIG. 1. Here is the method: Human enamel chips were mounted in acrylic resin and polished flat using silicon carbide paper (1200 and 2400 grit). The specimens were then randomised and divided into three treatment groups (n=6). The treatment groups were 300 ppm fluoride (sodium fluoride); glycerin-coated titanium dioxide (with a mean particle size of 20 nm) aqueous suspension, 2.5% w/v (UV Titan M212, Kemira, Aston Chemicals); and deionised water. The baseline hardness of each specimen was determined using a Struers Duramin Microindentor, fitted with a Vickers diamond indenter. Hardness values were expressed as Vickers Hardness Numbers (VHN). A load of 1.961N was applied to the specimens, with a dwell time of 20 seconds.
Specimens were placed in 30 ml of one of the three test solutions with agitation for 120 seconds, before rinsing with deionised water. After treatment, microhardness measurements were repeated. Erosion was then performed by incubating the mounted specimens for 30 minutes in 10 ml of a 1.0% w/w solution of citric acid, pH 3.8. Specimens were removed from the erosive challenge at 10 minute intervals and the surface microhardness determined.
The values for enamel hardness have been normalised relative to the individual baseline microhardness values, thus data at subsequent time points reflects softening of the enamel. The error bars in FIG. 1 represent standard deviations.
The treatments tested in this study were: 2.5% w/v titanium dioxide aqueous suspensions, specifically 20 nm glycerin-coated titanium dioxide (UV Titan M212, Kemira, Aston Chemicals), 20 nm PVP-coated titanium dioxide (UV Titan M263, Kemira, Aston Chemicals), 17 nm Stearic acid-coated titanium dioxide (UV Titan M160, Kemira, Aston Chemicals) and 14 nm uncoated titanium dioxide (UV Titan X140, Kemira, Aston Chemicals). A glycerin only negative control was used in the study.

With `[F-].[Na+]` [300 ppm fluoride, sodium fluoride], the “enamel softening (microhardness normalised to baseline) during citric acid exposure” value (1.0% w/w citric acid pH 3.8, up to 30 min, 120 s treatment) is recorded as “softened during the period in which they were exposed to citric acid, increasingly so as the incubation time increased”. In addition, the “enamel softening versus water-treated enamel” value (after 20 and 30 mins in citric acid) was “softened significantly less than enamel treated with water”. Also, under “after 20 mins citric acid exposure”, the “extent of enamel softening, fluoride versus nanoparticle suspension” value was “equivalent in their extent of softening”.

For the origin of these results see US20100291163A1, “ORAL CARE COMPOSITION COMPRISING NANOPARTICULATE TITANIUM DIOXIDE” (priority 2006, published 2010).
